Literature values as cited in patent US11634860B2, “Articles and methods for dispensing metal ions into laundry systems” (Applied Silver, Inc., priority 2016, dated 2023).

Details: silver salt formed with the binder's counterion

Solubility Limit	SMILES
6.21E−16 g/100 mL	[Ag+].[Ag+].[S-2] [Ag2S]
100 g/100 mL	[Ag+].[F-] [AgF]
1.60E−04 g/100 mL	[Cl][Ag] [AgCl]
